Data reported in patent publication US20090214514A1, “GUS3 NEUROPEPTIDES FOR REGULATING HYPOTHALAMIC FUNCTION” (priority 2004, published 2009).
No end group written: not given here.

Test: Standard 24-hour thirst assay: acute effect of icv GUS3 peptides on food and water intake
Format: in vivo, Sprague Dawley rats
Details: rats thirsted 24 h, not food deprived, single ICV injection in 5 uL vehicle 15 min before reintroduction of water, intake recorded at 30 min, 60 min, 2 h, 3 h; for effect on food intake: vs vehicle (FIG. 8A); for effect on water intake: vs vehicle (FIG. 8B)
Procedure: Animals are injected with the substances after a 24 hr thirst period and food and water intake is monitored at 30 minutes, 60 minutes, 2 hours, 3 hours, and 24 hours.
Thirty-six regular Sprague Dawley rats (Charles River, Germany) weighing approximately 250 gram at the start of the experiment were used for these experiments. All animals were kept under a 12/12 L/D cycle (lights on at 0300) and in temperature and humidity controlled rooms. The animals were allowed a 5 day acclimatisation period after arrival to the test facility in order to reduce stress effects.
All experiments are conducted in accordance with internationally accepted principles for the care and use of laboratory animals and are approved by the Danish committee for animal research. Under Hypnorm Dormicum (Nomeco A/S, Copenhagen Denmark) anesthesia all animals were stereotaxically equipped with a stainless steel cannula aimed at the lateral ventricle (1 mm caudal and 1.5 mm lateral from bregma and 4 mm depth). During a 7 day recovery period, the rats were handled daily in order to accustom them to the experimental procedure.
The following peptides were ordered from Schafer-N, Copenhagen (see also example 2):
The animals were divided into 4 weight-matched groups prior to the test: • Group 4 Vehicle control (5 μL PBS) • Group 3 GUS3 C (10 ug) icv in 5 uL vehicle • Group 2 GUS3 M (1 ug) icv in 5 uL vehicle • Group 1 GUS3 N (10 ug) icv in 5 uL vehicle
The rats were thirsted but not food deprived twenty-four hours before the experiment. Fifteen minutes prior to reintroduction of water (time=0) the animals received an ICV injection of […] of one of the 3 peptides dissolved in 5 μL vehicle or of vehicle alone. Water and food intake was recorded at time=30 minutes, 60 minutes, 2 hour, 3 hours and 24 hours.
The data are evaluated by relevant statistical analyses (Statview software). Results are presented as mean±SEM (standard error of the mean). Statistical evaluation of the data is carried out using one-way analysis of variance (ANOVA) with appropriate post-hoc analysis between control and treatment groups in cases where statistical significance is established (p<0.05; Scheffe or Bonferoni).

| Substance | effect on food intake | effect on water intake |
| --- | --- | --- |
| TIARQTARCAC (listed as Homo sapiens) [GUS3 M] | did not seem to affect | did not seem to affect |
| ac-QFLKEGQLAAGTCEIVTLDRDSSQP (Ac-QFLKEGQLAAGTCEIVTLDRDSSQP; listed as Homo sapiens) [GUS3 N] | did not seem to affect | did not seem to affect |
